For 42 compounds, IC50, Activity and inhibition results are on record in ChEMBL document CHEMBL5038680, “Design, Synthesis, and Evaluation of PD-1/PD-L1 Antagonists Bearing a Benzamide Scaffold” (ACS Med Chem Lett, 2022).

Test [1] deals with T1, Programmed cell death protein 1/Programmed cell death 1 ligand 1 (Homo sapiens, UniProt Q15116+Q9NZQ7). The test can be described thus: Inhibition of PD-1/PDL-1 (unknown origin) interaction incubated for 15 mins by TR-FRET assay. It counts as protein-complex assay.
T1 sequence (Q15116 whole entry): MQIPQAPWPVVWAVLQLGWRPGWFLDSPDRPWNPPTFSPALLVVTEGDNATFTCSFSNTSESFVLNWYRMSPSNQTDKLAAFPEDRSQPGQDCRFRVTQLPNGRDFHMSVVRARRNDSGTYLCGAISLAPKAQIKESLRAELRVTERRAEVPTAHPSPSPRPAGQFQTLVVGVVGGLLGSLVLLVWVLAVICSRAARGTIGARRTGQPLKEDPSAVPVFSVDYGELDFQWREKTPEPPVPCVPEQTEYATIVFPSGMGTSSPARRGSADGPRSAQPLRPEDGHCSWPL
T1 sequence (Q9NZQ7 whole entry): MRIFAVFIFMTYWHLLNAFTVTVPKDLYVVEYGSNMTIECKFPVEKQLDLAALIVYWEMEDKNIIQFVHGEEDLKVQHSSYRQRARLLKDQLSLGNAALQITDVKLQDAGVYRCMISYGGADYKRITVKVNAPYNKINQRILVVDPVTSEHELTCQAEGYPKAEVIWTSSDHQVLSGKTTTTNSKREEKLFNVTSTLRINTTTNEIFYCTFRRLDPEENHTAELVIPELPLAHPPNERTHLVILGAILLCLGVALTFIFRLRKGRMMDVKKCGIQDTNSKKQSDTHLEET
Test [2] has as its system MDA-MB-231. As to the kind of experiment: Cytotoxicity against human MDA-MB-231 cells assessed as cell killing at 2 uM incubated for 24 hrs by LDH assay. It counts as functional, cell-based.
Test [3] deals with MDA-MB-231. The test can be described thus: Cytotoxicity against human MDA-MB-231 cells assessed as cell killing by PBMC cell activation at 1 uM incubated for 24 hrs by LDH assay. In kind it is functional, cell-based.
The target of test [4] is T1, Programmed cell death protein 1/Programmed cell death 1 ligand 1. As to the kind of experiment: Inhibition of PD-1/PDL-1 (unknown origin) interaction at 1 uM incubated for 15 mins by TR-FRET assay. In kind it is protein-complex assay.

Each structure is given as a SMILES string. Activity calls are given as the source filed them. No cut-off for these calls is given here.

Broadly, the IC50 is the midpoint of a concentration-inhibition curve. The low end stands for inhibition by little substance, the high end for a need for much substance. Usually inhibition stands for the share of the control response that was lost under treatment.

Consider `O=C(Nc1ccc(CN2CC(O)C2)cn1)c1cccc(-c2ccccc2)c1Cl`, for which it took 528 nM to reach half-maximal inhibition in test [1] (IC50).

Take `O=C(Nc1ccc(CN2CC[C@H](C(=O)O)C2)cn1)c1cccc(-c2ccc3c(c2)OCCO3)c1Cl`: the outcome in the test on MDA-MB-231 [2] was inactive. Further, in test [1], the IC50 was found to be 16.2 nM. Moreover, in the test with MDA-MB-231 [3], the outcome was Active.

`CC(=O)NCCNCc1ccc(NC(=O)c2cccc(-c3ccccc3)c2Cl)nc1` yielded a half-maximal inhibitory concentration (IC50) in test [1] of 496 nM.

`COc1nc(NC(=O)c2cccc(-c3ccccc3)c2Cl)ccc1CNCCNC(C)=O`: the inhibition in test [4] is 28.2%. The same compound had an IC50 in test [1] above 1000 nM.

For `COc1ccc(-c2cccc(C(=O)Nc3ccc(CNCCNC(C)=O)cn3)c2Cl)cc1`, in test [4], the inhibition is 8.37%. In test [1], this compound displayed an IC50 above 1000 nM.

As for `CC(=O)NCCNCc1ccc(NC(=O)c2cccc(-c3ccc4c(c3)OCCO4)c2Cl)nc1`, the 50% inhibitory concentration (IC50) in test [1] worked out at 284 nM.

As to `COc1cccc(-c2cccc(C(=O)Nc3ccc(CNCCNC(C)=O)cn3)c2Cl)c1`, in test [4], the inhibition stood at 46.1%. The IC50 in test [1] was above 1000 nM.

In turn, `O=C(Nc1ccc(CNC[C@@H](O)CO)cn1)c1cccc(-c2ccccc2)c1Cl` displayed an IC50 in test [1] of 442 nM.

In the case of `CC(=O)NCCNCc1ccc(NC(=O)c2cccc(-c3ccc(S(C)(=O)=O)cc3)c2Cl)nc1`, in test [4], the inhibition entry was “inactive”. The IC50 in test [1] was above 1000 nM.

`CC(=O)NCCNCc1ccc(NC(=O)c2cccc(-c3ccc(F)c(F)c3)c2Cl)nc1` displayed an inhibition in test [4] of 2.32%. Also, the IC50 in test [1] is above 1000 nM.

For the compound `COCCNCc1ccc(NC(=O)c2cccc(-c3ccccc3)c2Cl)nc1`, in test [1], the IC50 was found to be 797 nM.

`O=C(Nc1ccc(CN2CCCC[C@H]2C(=O)O)cn1)c1cccc(-c2ccccc2)c1Cl`: the inhibition in test [4] stood at 41.2%. Further, in test [1], the IC50 was above 1000 nM.

The compound `COC(=O)C1CN(Cc2ccc(NC(=O)c3cccc(-c4ccccc4)c3Cl)nc2)C1` displayed an inhibition in test [4] of 32.5%. In test [1], this compound displayed a 50% inhibitory concentration (IC50) above 1000 nM.

`COCCOc1cccc(-c2cccc(C(=O)Nc3ccc(CNCCNC(C)=O)cn3)c2Cl)c1` gave an inhibition in test [4] of 5.29%. Besides, the IC50 in test [1] is above 1000 nM.

The compound `O=C(Nc1ccc(CN2CC(C(=O)O)C2)cn1)c1cccc(-c2ccccc2)c1Cl` came in with a 50% inhibitory concentration (IC50) in test [1] of 645 nM.

For `O=C(Nc1ccc(CNCCO)c(C(F)(F)F)n1)c1cccc(-c2ccccc2)c1Cl`, in test [4], the inhibition turned out to be 41.5%. This compound also yielded an IC50 in test [1] above 1000 nM.

On to `O=C(Nc1ccc(CNCCO)c(F)n1)c1cccc(-c2ccccc2)c1Cl`, for which the IC50 in test [1] worked out at 429 nM.

`COc1nc(NC(=O)c2cccc(-c3ccccc3)c2Cl)ccc1CNCCN(C)C` returned an inhibition in test [4] of 11.6%. Moreover, the IC50 in test [1] is above 1000 nM.

Regarding `CC(=O)NCCNCc1ccc(NC(=O)c2cccc(-c3ccccc3)c2Cl)nc1C(F)(F)F`, the inhibition in test [4] was 33.8%. The compound also yielded an IC50 in test [1] above 1000 nM.

`CC(=O)NCCNCc1ccc(NC(=O)c2cccc(-c3ccccc3)c2C)nc1` showed an inhibition in test [4] of 44.2%. Also, the IC50 in test [1] was above 1000 nM.

In test [1], `COc1ccc(-c2cccc(C(=O)Nc3ccc(CNCCNC(C)=O)cn3)c2Cl)cc1OC` displayed an IC50 above 1000 nM.

Compound `CC(=O)NCCNCc1ccc(NC(=O)c2cccc(-c3ccccc3)c2Cl)nc1F` returned an IC50 in test [1] of 581 nM.

Consider `CC(=O)NCCNCc1ccc(NC(=O)c2cccc(-c3cccc4c3CC[C@@H]4O)c2Cl)nc1`, for which the inhibition result in test [4] is “inactive”. Also, the IC50 in test [1] is above 1000 nM.

As to `CC(=O)NCCNCc1ccc(NC(=O)c2cccc(-c3ccncc3)c2Cl)nc1`, in test [4], the inhibition result is “inactive”. The concentration for half-maximal inhibition (IC50) in test [1] is above 1000 nM.

On to `COC1CN(Cc2ccc(NC(=O)c3cccc(-c4ccccc4)c3Cl)nc2)C1`, for which the inhibition in test [4] was determined as 44%. This compound also showed an IC50 in test [1] above 1000 nM.

`CC(=O)NCCNCc1ccc(NC(=O)c2cccc(-c3ccc(F)cc3)c2Cl)nc1` had an inhibition in test [4] of 6.96%. In test [1], the IC50 was above 1000 nM.

As to `O=C(Nc1ccc(CN2CC[C@H](C(=O)O)C2)cn1)c1cccc(-c2ccc3c(c2)OCCO3)c1`, the inhibition result in test [4] is “inactive”. Moreover, the IC50 in test [1] was above 1000 nM.

In test [1], `O=C(Nc1ccc(CN2CC[C@H](C(=O)O)C2)cn1)c1cccc(-c2ccc3c(c2)OCCO3)c1Br` showed an IC50 of 46.5 nM.

Take `COC(=O)[C@H]1CCN(Cc2ccc(NC(=O)c3cccc(-c4ccccc4)c3Cl)nc2)C1`: the inhibition in test [4] amounted to 50.6%. The compound further came in with an IC50 in test [1] above 1000 nM.

`O=C(Nc1ccc(CN2CCC(O)CC2)cn1)c1cccc(-c2ccccc2)c1Cl`: half-maximal inhibition in test [1] (IC50) was put at 460 nM.

Regarding `CC(=O)NCCNCc1ccc(NC(=O)c2cccc(-c3cc(F)c(F)c(F)c3)c2Cl)nc1`, in test [4], the inhibition is 3.52%. The IC50 in test [1] was above 1000 nM.

Regarding `CC(=O)NCCNCc1ccc(NC(=O)c2cccc(-c3ccccc3)c2Cl)cc1`, the inhibition in test [4] worked out at 9.86%. Further, the IC50 in test [1] was above 1000 nM.

For the compound `CC(=O)NCCNCc1ccc(NC(=O)c2cccc(-c3cccc(CO)c3)c2Cl)nc1`, the inhibition in test [4] was found to be 2.5%. Moreover, in test [1], the IC50 was above 1000 nM.

Turning to `CO[C@H]1CCc2c(-c3cccc(C(=O)Nc4ccc(CNCCNC(C)=O)cn4)c3Cl)cccc21`, the inhibition in test [4] was 7.75%. Moreover, the IC50 in test [1] was above 1000 nM.

In the case of `O=C(Nc1ccc(CN2CC[C@H](C(=O)O)C2)cn1)c1cccc(-c2ccccc2)c1Cl`, the IC50 in test [1] worked out at 173 nM.

In turn, `COc1ccccc1-c1cccc(C(=O)Nc2ccc(CNCCNC(C)=O)cn2)c1Cl` showed an inhibition in test [4] of 5.52%. In test [1], this compound displayed an IC50 above 1000 nM.

With `CC(=O)NCCNCc1ccnc(NC(=O)c2cccc(-c3ccccc3)c2Cl)c1`, 894 nM corresponded to half-maximal inhibition in test [1] (IC50).

Consider `O=C(Nc1ccc(CNCCO)cn1)c1cccc(-c2ccccc2)c1Cl`, for which 502 nM corresponded to half-maximal inhibition in test [1] (IC50).

On to `CC(=O)NCCNCc1cccc(NC(=O)c2cccc(-c3ccccc3)c2Cl)n1`, for which the inhibition in test [4] worked out at 15.8%. The IC50 in test [1] was above 1000 nM.

Turning to `O=C(Nc1ccc(CN2CC[C@H](C(=O)O)C2)cn1)c1cccc(-c2ccc3c(c2)OCCO3)c1F`, in test [4], the inhibition entry was “inactive”. In test [1], this compound displayed an IC50 above 1000 nM.

On to `CN(C)CCNCc1ccc(NC(=O)c2cccc(-c3ccccc3)c2Cl)nc1`, for which the inhibition in test [4] turned out to be 27.7%. This compound came in with a half-inhibitory concentration (IC50) in test [1] above 1000 nM.

The compound `O=C(Nc1ccc(CN2CC[C@@H](O)C2)cn1)c1cccc(-c2ccccc2)c1Cl` had an IC50 in test [1] of 373 nM.
